This is an account of results in US9670231B2, “Fused tricyclic amide compounds as multiple kinase inhibitors” (BEIGENE, LTD., priority 2013, dated 2017).

Common to all, as to assay type: biochemical
The target in one test is B-Raf (V600E) (Homo sapiens (Human), UniProt P15056, V600E). The experiment in a line: Raf IC50 assay, TR-FRET, B-Raf (V600E). The settings on record: 0.1 mM ATP; read-out: IC50 BRAF-V600E. For orientation: Time-resolved FRET reads energy transfer from a long-lived donor to a nearby acceptor.
Another test addresses C-Raf (Y340D/Y341D) (Homo sapiens (Human), UniProt P04049, Y340D/Y341D). Nature of the test: Raf IC50 assay, TR-FRET, C-Raf (Y340D/Y341D). The conditions noted are these: 0.1 mM ATP. As for the experimental part: Compounds disclosed herein were tested against B-Raf (V600E) (PV3849, from Invitrogen) or C-Raf (Y340D/Y341D) (PV3805, from Invitrogen) in a time-resolved fluorescence energy transfer assay. The assay was carried out in reactions (10 μL) containing 0.0625 nM B-Raf or 0.5 nM C-Raf, 25 mM Tris pH7.4, 10 mM MgCl2, 0.5 mM EGTA, 0.5 mM Na3VO4, 5 mM beta-glycerophosphate, 0.01% Triton X-100, 2.5 mM DTT, 0.1% BSA, 0.1 mM ATP, 13.7 nM GST-tagged MEK1 (Full-length protein with K97R mutation, recombinant protein purified from bacterial expression system) and 0-5 μM compounds disclosed herein (final concentration of 1% DMSO). The enzyme was incubated with the compounds disclosed herein at room temperature for 60 minutes and the reactions were initiated by the addition of ATP and GST-MEK1. After reaction at room temperature for 60 minutes, an equal volume of stop/detection solution was added according to the manufacture's instruction (CisBio Bioassays). The stop/detection solution contained Eu^3+ cryptate-conjugated anti-phospho MEK1/2 (Ser217/221) rabbit polyclonal antibody and d2-conjugated anti-GST mouse monoclonal antibody in buffer containing 25 mM Tris pH7.4, 400 mM KF, 50 mM EDTA, 0.01% BSA and 0.01% Triton X-100. Plates were sealed and incubated at room temperature for 2 hours, and the TR-FRET signals (ratio of fluorescence emission at 665 nm over emission at 620 nm with excitation at 337 nm wavelength) were recorded on a PHERAstar FS plate reader (BMG Labtech). Phosphorylation of MEK1 led to the binding of anti-phospho-MEK1/2 antibody to GST-MEK1 protein that place fluorescent donor (Eu^3+ crypate) in close proximity to the accepter d2 on the anti-GST antibody, thus resulting in a high degree of fluorescence resonance energy transfer from the donor fluorophore (at 620 nm) to the acceptor fluorophore (at 665 nm). […] The IC50 for each compound was derived from fitting the dose-response % inhibition data to the four-parameter logistic model by Graphpad Prism software.

A further test concerns the target wild type B-Raf (Homo sapiens (Human), UniProt P15056). The experiment in a line: WT BRaf IC50 assay, TR-FRET. Also on record: Braf-WT Km ATP, % at 100 nM: scale not given here. As for the experimental part: WT BRaf IC50 Assay Protocol
Compounds disclosed herein were tested against wild type B-Raf (PV3848, from Invitrogen) in a time-resolved fluorescence energy transfer assay. […] The enzyme was incubated with the compounds disclosed herein at room temperature for 120 minutes and the reactions were initiated by the addition of ATP and GST-MEK1. After incubating at room temperature for 60 minutes, an equal volume of stop buffer containing 25 mM Tris pH7.4, 400 mM KF, 50 mM EDTA, 0.1% BSA, 0.01% Triton X-100, 1 test of Eu3+Cryptate-conjugated rabbit polyclonal antibody anti-Phospho MEK1/2 (Ser217/221) and 1 test of d2-conjugated mouse monoclonal antibody anti-glutathione S-transferase was added to stop the reactions. Plates were sealed and incubated at room temperature for 1.5 hours, and then the TR-FRET signals were read on BMG PHERAstar FS instrument. The IC50 for each compound was calculated by non linear regression by Graphpad Prism software.

In the next test the target is WT EGFR kinase domain (Homo sapiens (Human), UniProt P00533). Nature of the test: EGFR enzymatic assay, TR-FRET, WT EGFR.
A further test addresses EGFR L858R kinase domain (Homo sapiens (Human), UniProt P00533, L858R). The experiment in a line: EGFR enzymatic assay, TR-FRET, EGFR L858R.
Test [1] concerns the target EGFR T790M/L858R kinase domain (Homo sapiens (Human), UniProt P00533, L858R/T790M). The experiment in a line: EGFR enzymatic assay, TR-FRET, EGFR T790M/L858R.
[2] abbreviates: Km ATP ([…] ATP), read-out: IC50 Braf-WT Km ATP.

Where two headings read alike, the source gives them in different places.

As a reminder, the IC50 is the midpoint of a concentration-inhibition curve.

Chain of EGFR T790M/L858R kinase domain (P00533 669-1210 T790M/L858R): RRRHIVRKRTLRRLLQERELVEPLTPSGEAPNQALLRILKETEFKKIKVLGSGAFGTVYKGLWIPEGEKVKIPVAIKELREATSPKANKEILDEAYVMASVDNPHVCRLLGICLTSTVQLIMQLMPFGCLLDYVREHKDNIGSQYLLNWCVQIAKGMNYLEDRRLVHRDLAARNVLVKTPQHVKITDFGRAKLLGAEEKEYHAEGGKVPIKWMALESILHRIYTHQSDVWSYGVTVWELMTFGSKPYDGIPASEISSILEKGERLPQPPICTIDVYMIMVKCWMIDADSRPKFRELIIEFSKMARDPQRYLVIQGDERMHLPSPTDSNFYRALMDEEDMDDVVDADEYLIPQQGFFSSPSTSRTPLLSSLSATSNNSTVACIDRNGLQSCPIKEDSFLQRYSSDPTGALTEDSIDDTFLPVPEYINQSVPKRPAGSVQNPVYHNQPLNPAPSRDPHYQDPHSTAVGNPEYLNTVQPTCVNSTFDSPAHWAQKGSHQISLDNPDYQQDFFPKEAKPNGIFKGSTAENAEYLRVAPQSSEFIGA
Chain of wild type B-Raf (P15056 whole entry): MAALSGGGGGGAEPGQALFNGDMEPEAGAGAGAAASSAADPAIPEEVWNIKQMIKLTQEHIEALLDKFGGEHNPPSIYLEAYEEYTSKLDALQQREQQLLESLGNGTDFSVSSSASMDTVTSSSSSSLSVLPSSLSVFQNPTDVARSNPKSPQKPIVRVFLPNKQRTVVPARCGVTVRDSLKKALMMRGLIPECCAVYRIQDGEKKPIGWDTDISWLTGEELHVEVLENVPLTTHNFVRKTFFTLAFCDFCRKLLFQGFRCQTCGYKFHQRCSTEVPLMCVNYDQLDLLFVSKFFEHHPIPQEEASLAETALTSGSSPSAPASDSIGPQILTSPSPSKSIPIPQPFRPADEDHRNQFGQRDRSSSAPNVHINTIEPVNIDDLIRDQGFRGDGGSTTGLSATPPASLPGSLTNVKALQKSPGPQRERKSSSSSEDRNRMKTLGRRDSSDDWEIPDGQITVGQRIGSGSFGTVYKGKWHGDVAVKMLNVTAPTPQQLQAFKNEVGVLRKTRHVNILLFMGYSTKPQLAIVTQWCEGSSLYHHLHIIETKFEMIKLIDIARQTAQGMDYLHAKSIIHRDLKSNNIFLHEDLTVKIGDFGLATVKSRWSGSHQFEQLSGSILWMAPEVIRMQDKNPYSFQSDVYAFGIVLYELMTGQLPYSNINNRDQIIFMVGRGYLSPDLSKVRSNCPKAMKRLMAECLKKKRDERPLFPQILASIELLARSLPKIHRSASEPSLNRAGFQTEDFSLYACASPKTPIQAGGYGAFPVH
Chain of EGFR L858R kinase domain (P00533 669-1210 L858R): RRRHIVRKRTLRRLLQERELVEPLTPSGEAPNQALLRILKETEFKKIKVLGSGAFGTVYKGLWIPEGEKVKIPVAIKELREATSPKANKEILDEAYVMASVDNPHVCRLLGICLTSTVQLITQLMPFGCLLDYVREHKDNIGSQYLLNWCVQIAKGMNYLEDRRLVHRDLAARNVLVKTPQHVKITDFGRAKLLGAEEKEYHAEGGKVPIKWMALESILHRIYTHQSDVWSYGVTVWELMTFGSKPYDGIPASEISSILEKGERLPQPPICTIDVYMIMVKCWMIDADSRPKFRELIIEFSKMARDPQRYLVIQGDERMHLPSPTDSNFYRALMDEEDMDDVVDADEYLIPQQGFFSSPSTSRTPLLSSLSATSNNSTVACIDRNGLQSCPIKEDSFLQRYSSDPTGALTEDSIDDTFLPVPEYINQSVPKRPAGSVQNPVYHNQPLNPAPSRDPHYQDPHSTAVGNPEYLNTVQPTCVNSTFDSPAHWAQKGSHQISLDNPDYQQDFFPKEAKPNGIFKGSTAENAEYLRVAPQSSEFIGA
Chain of C-Raf (Y340D/Y341D) (P04049 whole entry Y340D/Y341D): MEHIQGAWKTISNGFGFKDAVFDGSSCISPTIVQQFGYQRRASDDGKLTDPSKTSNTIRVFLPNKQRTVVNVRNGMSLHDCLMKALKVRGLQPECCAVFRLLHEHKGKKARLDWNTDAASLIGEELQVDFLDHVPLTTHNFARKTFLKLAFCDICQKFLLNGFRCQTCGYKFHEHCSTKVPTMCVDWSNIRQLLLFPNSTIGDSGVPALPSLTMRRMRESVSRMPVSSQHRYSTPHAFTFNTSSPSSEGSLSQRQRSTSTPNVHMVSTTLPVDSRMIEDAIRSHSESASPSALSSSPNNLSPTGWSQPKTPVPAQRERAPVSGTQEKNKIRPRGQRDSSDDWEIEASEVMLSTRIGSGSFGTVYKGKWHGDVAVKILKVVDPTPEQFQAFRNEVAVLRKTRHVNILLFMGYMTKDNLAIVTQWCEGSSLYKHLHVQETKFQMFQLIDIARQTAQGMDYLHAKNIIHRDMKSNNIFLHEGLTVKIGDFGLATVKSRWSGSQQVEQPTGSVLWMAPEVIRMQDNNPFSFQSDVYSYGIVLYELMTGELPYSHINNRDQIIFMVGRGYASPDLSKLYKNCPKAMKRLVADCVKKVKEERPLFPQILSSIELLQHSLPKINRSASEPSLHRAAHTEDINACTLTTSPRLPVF
Chain of B-Raf (V600E) (P15056 whole entry V600E): as the sequence (P15056 whole entry) above, with V600E counted along it
Chain of WT EGFR kinase domain (P00533 669-1210): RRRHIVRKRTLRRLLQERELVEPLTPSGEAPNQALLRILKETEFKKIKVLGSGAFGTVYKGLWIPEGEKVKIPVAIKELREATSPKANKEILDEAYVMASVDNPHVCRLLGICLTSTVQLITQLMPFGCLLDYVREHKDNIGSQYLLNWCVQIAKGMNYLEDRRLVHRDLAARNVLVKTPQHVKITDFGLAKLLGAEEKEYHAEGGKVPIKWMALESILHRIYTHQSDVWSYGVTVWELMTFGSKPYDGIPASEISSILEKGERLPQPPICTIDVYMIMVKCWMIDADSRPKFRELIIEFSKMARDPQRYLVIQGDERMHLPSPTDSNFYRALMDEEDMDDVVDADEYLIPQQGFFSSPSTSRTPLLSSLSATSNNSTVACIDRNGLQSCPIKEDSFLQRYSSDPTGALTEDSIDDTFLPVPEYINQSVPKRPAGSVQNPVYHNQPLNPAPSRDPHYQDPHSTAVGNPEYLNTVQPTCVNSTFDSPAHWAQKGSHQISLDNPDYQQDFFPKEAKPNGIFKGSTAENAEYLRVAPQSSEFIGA

For `O=C1CCc2c(Oc3ccc4c(c3)[C@H]3[C@H](NC(=O)c5cccc(C(F)(F)F)c5)[C@H]3O4)ccnc2N1` [Compound 1.35], the half-inhibitory concentration (IC50) amounted to 1.2 nM on B-Raf (V600E); 0.33 nM against C-Raf (Y340D/Y341D); 12 nM at wild type B-Raf (IC50 Braf-WT […] ATP, […] ATP); 4.4 nM at wild type B-Raf (setting [2]); 18 nM against WT EGFR kinase domain; 9.7 nM against EGFR L858R kinase domain. Besides, the midpoint of inhibition in test [1], the IC50, lay at 47 nM.
For the compound `CC(C)(C#N)c1cccc(C(=O)N[C@@H]2[C@H]3Oc4ccc(Oc5ccnc6c5CCC(=O)N6)cc4[C@@H]23)c1` [Compound 1.43], the IC50 turned out to be 4.1 nM at B-Raf (V600E); 0.34 nM against C-Raf (Y340D/Y341D); 4.4 nM at wild type B-Raf (setting [2]); 13 nM at WT EGFR kinase domain; 11 nM against EGFR L858R kinase domain; 38 nM in test [1].
Turning to `O=C1CCc2c(Oc3ccc4c(c3)[C@H]3[C@H](NC(=O)c5ccc(C(F)(F)F)cc5)[C@H]3O4)ccnc2N1` [Compound 1.40], the 50% inhibitory concentration (IC50) worked out at 8.1 nM on B-Raf (V600E); 0.64 nM at C-Raf (Y340D/Y341D); 5.7 nM at wild type B-Raf (setting [2]); 13 nM on WT EGFR kinase domain; 12 nM against EGFR L858R kinase domain; 84 nM in test [1].
For `CN(C)[C@H]1CCCN(Cc2ccc(C(=O)N[C@@H]3[C@H]4Oc5ccc(Oc6ccnc7c6CCC(=O)N7)cc5[C@@H]34)cc2C(F)(F)F)C1` [Compound 1.32], the concentration for half-maximal inhibition (IC50) was 13 nM at B-Raf (V600E); 2.5 nM on C-Raf (Y340D/Y341D); 21 nM at wild type B-Raf (setting [2]); 1.5 nM at WT EGFR kinase domain; 0.47 nM on EGFR L858R kinase domain; 1.3 nM in test [1].
On to `CC(C)(N)c1cc(C(=O)N[C@@H]2[C@H]3Oc4ccc(Oc5ccnc6c5CCC(=O)N6)cc4[C@@H]23)cc(C(F)(F)F)c1` [Compound 1.25, 3-(2-aminopropan-2-yl)-N-((1S,1aS,6bS)-5-((7-oxo-5,6,7,8-tetrahydro-1,8-naphthyridin-4-yl)oxy)-1a,6b-dihydro-1H-cyclopropa[b]benzofuran-1-yl)-5-(trifluoromethyl)benzamide], for which the IC50 at B-Raf (V600E) turned out to be 0.71 nM; against C-Raf (Y340D/Y341D), 0.25 nM; at wild type B-Raf (IC50 Braf-WT […] ATP, […] ATP), 3.4 nM; at wild type B-Raf (setting [2]) it was 1.4 nM; at WT EGFR kinase domain, 0.48 nM; against EGFR L858R kinase domain it was 0.15 nM. This compound gave an IC50 in test [1] of 1.2 nM.
Take `O=C1CCc2c(Oc3ccc4c(c3)[C@H]3[C@H](NC(=O)c5ccc(CN6CCNCC6)c(C(F)(F)F)c5)[C@H]3O4)ccnc2N1` [Compound 1.27, N-((1S,1aS,6bS)-5-((7-oxo-5,6,7,8-tetrahydro-1,8-naphthyridin-4-yl)oxy)-1a,6b-dihydro-1H-cyclopropa[b]benzofuran-1-yl)-4-(piperazin-1-ylmethyl)-3-(trifluoromethyl)benzamide]: the half-inhibitory concentration (IC50) worked out at 27.2 nM on B-Raf (V600E); 3 nM against C-Raf (Y340D/Y341D); 120 nM at wild type B-Raf (IC50 Braf-WT […] ATP, […] ATP); 63 nM on wild type B-Raf (setting [2]); 1.3 nM at WT EGFR kinase domain; 0.31 nM against EGFR L858R kinase domain. Moreover, the IC50 in test [1] was 0.54 nM.
As to `N[C@@H]1[C@H]2Oc3ccc(Oc4ccnc5c4CCC(=O)N5)cc3[C@@H]12` [Intermediate I, 5-(((1S,1aS,6bS)-1-amino-1a,6b-dihydro-1H-cyclopropa[b]benzofuran-5-yl)oxy)-3,4-dihydro-1,8-naphthyridin-2(1H)-one], the half-inhibitory concentration (IC50) on B-Raf (V600E) is 2840 nM; on C-Raf (Y340D/Y341D) it was 277 nM. In addition, the “Braf-WT Km ATP, % at 100 nM” value at wild type B-Raf (at 100 nM compound, Km ATP) is on record as −2% at 100 nM.
`C[C@H]1CN(Cc2ccc(C(=O)N[C@@H]3[C@H]4Oc5ccc(Oc6ccnc7c6CCC(=O)N7)cc5[C@@H]34)cc2C(F)(F)F)CCN1` [Compound 1.29, 4-(((S)-3-methylpiperazin-1-yl)methyl)-N-((1S,1aS,6bS)-5-((7-oxo-5,6,7,8-tetrahydro-1,8-naphthyridin-4-yl)oxy)-1a,6b-dihydro-1H-cyclopropa[b]benzofuran-1-yl)-3-(trifluoromethyl)benzamide]: the 50% inhibitory concentration (IC50) stood at 6.2 nM on B-Raf (V600E); 1.1 nM on C-Raf (Y340D/Y341D); 9.1 nM at wild type B-Raf (setting [2]); 0.61 nM at WT EGFR kinase domain; 0.14 nM against EGFR L858R kinase domain; 0.3 nM in test [1].
As for `O=C1CCc2c(Oc3ccc4c(c3)[C@H]3[C@H](NC(=O)c5ccc(CN6CCOCC6)c(C(F)(F)F)c5)[C@H]3O4)ccnc2N1` [Compound 1.7], the half-inhibitory concentration (IC50) stood at 36 nM at B-Raf (V600E); 3.5 nM against C-Raf (Y340D/Y341D); 130 nM against wild type B-Raf (IC50 Braf-WT […] ATP, […] ATP); 36 nM at wild type B-Raf (setting [2]); 9.8 nM against WT EGFR kinase domain; 16 nM against EGFR L858R kinase domain. The compound further gave a concentration for half-maximal inhibition (IC50) in test [1] of 54 nM.
Regarding `O=C1CCc2c(Oc3ccc4c(c3)[C@H]3[C@H](NC(=O)c5ccc(CN6CCCCC6)c(C(F)(F)F)c5)[C@H]3O4)ccnc2N1` [Compound 1.8], the IC50 is 41 nM on B-Raf (V600E); 18 nM on C-Raf (Y340D/Y341D); 380 nM on wild type B-Raf (IC50 Braf-WT […] ATP, […] ATP); 96 nM on wild type B-Raf (setting [2]); 70 nM at WT EGFR kinase domain; 100 nM against EGFR L858R kinase domain. The compound further displayed an IC50 in test [1] of 504 nM.
Turning to `O=C1CCc2c(Oc3ccc4c(c3)[C@H]3[C@H](NC(=O)c5cccc(F)c5)[C@H]3O4)ccnc2N1` [Compound 1.39], the IC50 at B-Raf (V600E) amounted to 0.76 nM; at C-Raf (Y340D/Y341D), 0.15 nM; on wild type B-Raf (setting [2]), 0.9 nM; against WT EGFR kinase domain, 75 nM; against EGFR L858R kinase domain, 30 nM; in test [1], 692 nM.
Regarding `CCN1CCN(Cc2ccc(C(=O)N[C@@H]3[C@H]4Oc5ccc(Oc6ccnc(C(=O)NC)c6)cc5[C@@H]34)cc2C(F)(F)F)CC1` [Compound 2.3, 4-(((1S,1aS,6bS)-1-(4-((4-ethylpiperazin-1-yl)methyl)-3-(trifluoromethyl)benzamido)-1a,6b-dihydro-1H-cyclopropa[b]benzofuran-5-yl)oxy)-N-methylpicolinamide], the IC50 on B-Raf (V600E) amounted to 54 nM; against C-Raf (Y340D/Y341D), 12 nM; on wild type B-Raf (setting [2]), 52 nM; against WT EGFR kinase domain, 7.1 nM; on EGFR L858R kinase domain, 4.7 nM; in test [1], 22 nM.
For the compound `NC1(c2cc(C(=O)N[C@@H]3[C@H]4Oc5ccc(Oc6ccnc7c6CCC(=O)N7)cc5[C@@H]34)cc(C(F)(F)F)c2)CC1` [Compound 1.26, 3-(1-aminocyclopropyl)-N-((1S,1aS,6bS)-5-((7-oxo-5,6,7,8-tetrahydro-1,8-naphthyridin-4-yl)oxy)-1a,6b-dihydro-1H-cyclopropa[b]benzofuran-1-yl)-5-(trifluoromethyl)benzamide], the concentration for half-maximal inhibition (IC50) is 2.2 nM at B-Raf (V600E); 0.52 nM at C-Raf (Y340D/Y341D); 5.7 nM on wild type B-Raf (setting [2]); 1.7 nM against WT EGFR kinase domain; 1.3 nM on EGFR L858R kinase domain; 9.4 nM in test [1].
As for `CN1CCC(Oc2ccc(C(=O)N[C@@H]3[C@H]4Oc5ccc(Oc6ccnc7c6CCC(=O)N7)cc5[C@@H]34)cc2C(F)(F)F)CC1` [Compound 1.51, 4-((1-methylpiperidin-4-yl)oxy)-N-((1S,1aS,6bS)-5-((7-oxo-5,6,7,8-tetrahydro-1,8-naphthyridin-4-yl)oxy)-1a,6b-dihydro-1H-cyclopropa[b]benzofuran-1-yl)-3-(trifluoromethyl)benzamide], the values for the IC50 on B-Raf (V600E), against C-Raf (Y340D/Y341D) and at wild type B-Raf (setting [2]) were 14 nM, 1.61 nM and 9.8 nM, respectively.
On to `O=C1CCc2c(Oc3ccc4c(c3)[C@H]3[C@H](NC(=O)c5ccc(CN6CCn7c(nnc7C(F)(F)F)C6)c(C(F)(F)F)c5)[C@H]3O4)ccnc2N1` [Compound 1.14], for which the IC50 amounted to 20 nM on B-Raf (V600E), 1.7 nM against C-Raf (Y340D/Y341D) and 20 nM at wild type B-Raf (setting [2]).
